Like-named read-outs stand apart in the source and are kept apart here.
How the values were obtained:
[1] = pH-dependent release of free drug from human serum albumin conjugates; format: physicochemical; conditions: upon changing the pH from 7.4 to 4.1, 37° C., up to 24 hours
Method: The albumin-binding auristatin-Sulf07 derivatives were prepared as 2 mM stock solutions in anhydrous DMSO.
Release at pH 7.4: 442.4 μL of 1000 μM of reduced human serum albumin (881 μM free cysteine-34) and 727.6 μL PBS Buffer (4 mM sodium phosphate pH 7.4 and 150 mM NaCl) were added to a sealed HPLC vial and incubated at 37° C. for 30 minutes. After 30 minutes incubation 130 μL of the appropriate DMSO drug stock solution was added to the pre-incubated vial to produce a 200 μM solution of auristatin drug and a 300 μM solution of albumin (free cysteine-34). The mixture was allowed to react for 10 minutes at 37° C. and then analyzed by HPLC (method 7, 20 μL injection). Injections were repeated after 1 hour and then every hour up to 24 hours.
Release at pH 4.1: 408.5 μL of 1000 μM of reduced human serum albumin (881 μM free cysteine-34) and 539.4 μL of water were added to a sealed HPLC vial and incubated at 37° C. for 30 minutes. In a separate vial 190 μL sodium acetate buffer 50 mM pH 3.0 and 24.7 μL 1 M HCl were incubated at 37° C. for 30 minutes. […] The resulting solution was analyzed directly by HPLC (method 7). […]
The percentage of released free drug was determined by HPLC with a calibration curve (200 μM, 100 μM, 50 μM, 25 μM and 12.5 μM) for the free drugs i.e. AE-Keto for AE-Keto-Sulf07 and AE-Ester for AE-Ester-Sulf07. […]

[2] = tested on: panel of 6 selected human cancer cell lines (LXFL 1674L, SW-620, CAL-27, RKO, MDA-MB-468, SK-OV-3); experiment: IC50 determination in a panel of tumor cell lines (CellTiter-Blue Cell Viability assay); format: cell-based
Method: Samples were provided to Charles River Discovery Research Services Germany GmbH as frozen stock solutions in pharmaceutical grade DMSO (Sigma-Aldrich, Taufkirchen, Germany). On each day of the experiment, a frozen aliquot of stock solution was thawed. Subsequent serial dilutions were realized with complete RPMI 1640 cell culture medium using an intermediate dilution plate. 10 μL taken from the intermediate dilution plate were then transferred to 140 μL/well of the cell culture plate. Cells were treated with the test compounds at 10 concentrations in triplicate in half-log steps from 0.003 nM to 100 nM for a period of 96 h.
The compounds were tested in a panel of 6 selected human cancer cell lines by using CellTiter-Blue® Cell Viability assay (Promega, Mannheim, Germany). IC values are reported as absolute IC50 values, obtained for a test compound as the geometric mean of IC50 values over all cell lines tested.
The cell lines used were LXFL 1674L (established from patient-derived xenograft at Charles River Discovery Research Services Germany GmbH), SW-620 (kindly provided by the NCI, Bethesda, Md., USA), CAL-27 (purchased from DSMZ, Deutsche Sammlung von Mikroorganismen und Zellkulturen, Braunschweig, Germany), RKO, MDA-MB-468, and SK-OV-3 (from ATCC, American Type Culture Collection, Rockville, Md., USA). Authenticity of all cell lines was proven at the DSMZ by STR (short tandem repeat) analysis, a PCR based DNA-fingerprinting methodology. Cell lines were routinely passaged once or twice weekly and maintained in culture for up to 20 passages. Cells were grown at 37° C. in a humidified atmosphere with 5% CO2 in RPMI 1640 medium (25 mM HEPES, with L-glutamine, Biochrom, Berlin, Germany) supplemented with 10% (v/v) fetal calf serum (Sigma-Aldrich, Taufkirchen, Germany) and 0.1 mg/mL gentamicin (Life Technologies, Karlsruhe, Germany). The CellTiter-Blue® Cell Viability Assay was used according to manufacturer's instructions. Briefly, cells were harvested from exponential phase cultures, counted and plated in 96-well flat-bottom microtiter plates at a cell density of 4,000-10,000 cells/well depending on the cell line's growth rate. After a 24 h recovery period to allow the cells to resume exponential growth, 10 μL of culture medium (six control wells/plate) or of culture medium with test compound were added. The compounds were applied at 10 concentrations in triplicate in half-log increments up to 100 nM and cells were treated continuously for 96 h. […] Following an incubation period of up to 4 h, fluorescence (FU) was measured by using the Enspire Multimode Plate Reader (excitation λ=531 nm, emission λ=615 nm). IC50 values were determined with GraphPad Prism bioanalytic software (San Diego, Calif., USA).

[3] = Reconstitution stability (maleimide hydrolysis, loss of API) in reconstitution buffer; format: physicochemical; conditions: after 4 hours incubation at room temperature in reconstitution buffer (50 mM sodium phosphate pH 7.65 containing 4% HPβCD and 5% sucrose)
Method: (§1) The albumin-binding AE-Keto drug derivatives were reconstituted in 50 mM sodium phosphate buffer pH 7.6 which contained 5% sucrose (w/v) and 2% 2-hydroxypropyl-β-cyclodextrin (2-HPβCD). Both drugs were reconstituted at a concentration of 1277 μM (equal to 4.5 mg/kg murine xenograft dose), the dissolution of both drugs was confirmed by HPLC (method 2, 254 nm). Stability of the reconstituted drugs was monitored by HPLC at room temperature every 15 minutes over a period of 240 minutes for maleimide hydrolysis and loss of API.
as §1, with “AE-Ester” for “AE-Keto drug”, “4% 2-HPβCD.” for “2% 2-hydroxypropyl-β-cyclodextrin (2-HPβCD).”, “655” for “1277”, “2.4” for “4.5”, “310” for “254”

[4] = Homo sapiens, 96 h, read-out: Geometric mean IC50, geometric mean over six cell lines, 96 h treatment

Row | Compound | percent of free drug released from albumin conjugate [1] | IC50 [2, 4] [pM] | IC50 ([2]; read-out: Geometric mean IC50, geometric mean over six cell lines, 96 h treatment) [pM] | maleimide hydrolyzed [3] [%]
1 | CC[C@H](C)[C@@H]([C@@H](CC(=O)N1CCC[C@H]1[C@H](OC)[C@@H](C)C(=O)N[C@H](C)[C@@H](OC(=O)c1ccc(C(C)=O)cc1)c1ccccc1)OC)N(C)C(=O)[C@@H](NC(=O)[C@H](C(C)C)N(C)C)C(C)C (stereo in doubt) [AE-Ester, (1S,2R)-2-((3R)-3-((S)-1-((3R,4S,5R)-4-((S)-2-((S)-2-(dimethylamino)-3-methylbutanamido)-N,3-dimethylbutanamido)-3-methoxy-5-methylheptanoyl)pyrrolidin-2-yl)-3-methoxy-2-methylpropanamido)-1-phenylpropyl 4-acetylbenzoate] | higher than the percent of AE-Keto released | 339 | 399 ± 0.19 | 
2 | CC[C@H](C)[C@@H]([C@@H](CC(=O)N1CCC[C@H]1[C@H](OC)[C@@H](C)C(=O)N[C@H](C)C(=NNC(=O)CCCCCN1C(=O)C=CC1=O)c1ccccc1)OC)N(C)C(=O)[C@@H](NC(=O)[C@H](C(C)C)N(C)C)C(C)C [AE-Keto-EMCH, reference compound] |  |  |  | 5.4
3 | CC[C@H](C)[C@@H]([C@@H](CC(=O)N1CCC[C@H]1[C@H](OC)[C@@H](C)C(=O)N[C@H](C)[C@@H](OC(=O)c1ccc(C(C)=NNC(=O)CCCCCN2C(=O)C=CC2=O)cc1)c1ccccc1)OC)N(C)C(=O)[C@@H](NC(=O)[C@H](C(C)C)N(C)C)C(C)C [AE-Ester-EMCH, reference compound] |  |  |  | 11.0
4 | CC[C@H](C)[C@@H]([C@@H](CC(=O)N1CCC[C@H]1[C@H](OC)[C@@H](C)C(=O)N[C@H](C)C(=O)c1ccccc1)OC)N(C)C(=O)[C@@H](NC(=O)[C@H](C(C)C)N(C)C)C(C)C [AE-Keto, (S)-1-(((S)-1-(((3R,4S,5S)-3-methoxy-1-((S)-2-((1R,2R)-1-methoxy-2-methyl-3-oxo-3-(((R)-1-oxo-1-phenylpropan-2-yl)amino)propyl)pyrrolidin-1-yl)-5-methyl-1-oxoheptan-4-yl)(methyl)amino)-3-methyl-1-oxobutan-2-yl)amino)-N,N,3-trimethyl-1-oxobutan-2-aminium 2,2,2-trifluoroacetate] |  | 259 |  | 

— patent publication US11377473B2, “Albumin-binding prodrugs of auristatin E derivatives” (priority 2017, dated 2022)
